Reference: patent US20070213339A1 (Bayer Pharmaceuticals Corporation, priority 2004, published 2007)

Test system: Colo205 human colon carcinoma cell line
Experiment: In vitro tumor cell proliferation assay (MTS, CellTiter 96 Aqueous One Solution)
Assay type: cell-based
Conditions: COLO 205, Colo205 cells, 72 hours compound exposure, MTS absorbance at 490 nm, read-out: IC50 (concentration of test compound required to inhibit proliferation of 50% of the cells)
Method in brief: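 Colo205 cells seeded at 2000 cells/well in RPMI-1640 with 10% serum, exposed to compound for 72 h at 37 °C, 5% CO2, in a 5-point dose-response up to 10-20 μM. Viability read by MTS absorbance at 490 nm; IC50 from background-corrected percent inhibition by linear regression.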

Compound | IC50
N#Cc1ccc(N2CCN(c3c(F)cc4c(=O)c(C(=O)O)cn(-c5ccc(CN6CCCC6)cc5F)c4c3Cl)CC2)nc1 [Example 47, 8-chloro-7-[4-(5-cyanopyridin-2-yl)piperazin-1-yl]-6-fluoro-1-[2-fluoro-4-(pyrrolidin-1-ylmethyl)phenyl]-4-oxo-1,4-dihydroquinoline-3-carboxylic acid] | 500 to 2000 nM
NC(=O)c1cccnc1N1CCN(c2c(F)cc3c(=O)c(C(=O)O)cn(-c4ccc(CN5CCCC5)cc4)c3c2Cl)CC1 [Example 9, 7-{4-[3-(aminocarbonyl)pyridin-2-yl]piperazin-1-yl}-8-chloro-6-fluoro-4-oxo-1-[4-(pyrrolidin-1-ylmethyl)phenyl]-1,4-dihydroquinoline-3-carboxylic acid] | 500 to 2000 nM
CC1C=CC(C)N1Cc1ccc(-n2cc(C(=O)O)c(=O)c3cc(F)c(N4CCN(c5ncccn5)CC4)c(Cl)c32)cc1 (centres unmarked) [Example 20, 8-chloro-1-{4-[(2,5-dimethyl-2,5-dihydro-1H-pyrrol-1-yl)methyl]phenyl}-6-fluoro-4-oxo-7-(4-pyrimidin-2-ylpiperazin-1-yl)-1,4-dihydroquinoline-3-carboxylic acid] | 2000 to 20000 nM
O=C(O)c1cn(-c2ccc(CN3CC[C@H](O)C3)cc2)c2c(Cl)c(N3CCN(c4ccccn4)CC3)c(F)cc2c1=O [Example 28, 8-chloro-6-fluoro-1-(4-{[(3S)-3-hydroxypyrrolidin-1-yl]methyl}phenyl)-4-oxo-7-(4-pyridin-2-ylpiperazin-1-yl)-1,4-dihydroquinoline-3-carboxylic acid] | < 500 nM
CN(Cc1ccc(-n2cc(C(=O)O)c(=O)c3cc(F)c(N4CCN(c5ncccn5)CC4)c(Cl)c32)cc1)C1CCCCC1 [Example 62, 8-chloro-1-(4-{[cyclohexyl(methyl)amino]-methyl}phenyl)-6-fluoro-4-oxo-7-(4-pyrimidin-2-ylpiperazin-1-yl)-1,4-dihydroquinoline-3-carboxylic acid] | < 500 nM
COc1c(N2CCN(c3ccccn3)CC2)c(F)cc2c(=O)c(C(=O)O)cn(-c3ccc(CN4CCCC4)cc3)c12 [Example 72, 6-fluoro-8-methoxy-4-oxo-7-(4-pyridin-2-ylpiperazin-1-yl)-1-[4-(pyrrolidin-1-ylmethyl)phenyl]-1,4-dihydroquinoline-3-carboxylic acid] | < 500 nM

Next, values leading:

IC50 | Compound
< 500 nM | CCN(CC)Cc1ccc(-n2cc(C(=O)O)c(=O)c3cc(F)c(N4CCN(c5ccc(Cl)cc5)CC4)c(OC)c32)cc1 [Example 118, 7-[4-(4-chlorophenyl)piperazin-1-yl]-1-{4-[(diethylamino)methyl]phenyl}-6-fluoro-8-methoxy-4-oxo-1,4-dihydroquinoline-3-carboxylic acid]
< 500 nM | COc1c(N2CCN(c3ccccc3C#N)CC2)c(F)cc2c(=O)c(C(=O)O)cn(-c3ccc(CN4CCCCC4)cc3)c12 [Example 89, 7-[4-(2-cyanophenyl)piperazin-1-yl]-6-fluoro-8-methoxy-4-oxo-1-[4-(piperidin-1-ylmethyl)phenyl]-1,4-dihydroquinoline-3-carboxylic acid]
500 to 2000 nM | COc1c(N2CCN(c3ccc([N+](=O)[O-])cc3F)CC2)c(F)cc2c(=O)c(C(=O)O)cn(-c3ccc(CN4CCCC4)cc3)c12 [Example 87, 6-fluoro-7-[4-(2-fluoro-4-nitrophenyl)piperazin-1-yl]-8-methoxy-4-oxo-1-[4-(pyrrolidin-1-ylmethyl)phenyl]-1,4-dihydroquinoline-3-carboxylic acid]
500 to 2000 nM | O=C(O)c1cn(-c2ccc(CNC3CCCC3Cl)cc2)c2c(Cl)c(N3CCN(c4ccccn4)CC3)c(F)cc2c1=O (centres unmarked) [Example 173, 8-chloro-1-{4-[(2-chloro-cyclopentylamino)-methyl]-phenyl}-6-fluoro-4-oxo-7-(4-pyridin-2-yl-piperazine-1-yl)-1,4-dihydro-quinoline-3-carboxylic acid]
500 to 2000 nM | CCN(CC)Cc1ccc(-n2cc(C(=O)O)c(=O)c3cc(F)c(N4CCN(c5ccccc5Cl)CC4)c(OC)c32)cc1 [Example 109, 7-[4-(2-chlorophenyl)piperazin-1-yl]-1-{4-[(diethylamino)methyl]phenyl}-6-fluoro-8-methoxy-4-oxo-1,4-dihydroquinoline-3-carboxylic acid]
